Measured values taken from the Biogen ADME set (Fang et al. 2023).
In brackets after ≈: the same amount, converted by molar mass.

Details: for aqueous solubility: pH 6.8

Compound	MDR1-MDCK efflux ratio	intrinsic clearance, human liver microsomes [mL/min/kg]	intrinsic clearance, rat liver microsomes [mL/min/kg]	aqueous solubility [µg/mL]	fraction unbound, human plasma	fraction unbound, rat plasma
NC(=O)Cn1cc(-c2ccc(F)cc2)cn1	0.87	≤ 4.74	≤ 10.7	28 (≈ 128 µM)	–	–
CCC1=C(C)CN(C(=O)NCCc2ccc(S(=O)(=O)NC(=O)N[C@H]3CC[C@H](C)CC3)cc2)C1=O	68.6	19.2	305	–	0.00066	0.00023
CC(C)CNc1nnc(SCc2ccncc2)s1	1.03	30.9	631	48 (≈ 171 µM)	–	–
Cc1c(-c2c(F)cc(C(N)=O)c3[nH]c4c(c23)CC[C@H](C(C)(C)O)C4)cccc1-n1c(=O)c2cccc(F)c2n(C)c1=O	3.4	11.4	43.4	2.4 (≈ 4.19 µM)	0.0273	0.0212
CCN(c1ccccc1)S(=O)(=O)c1ccc(C(=O)Nc2ccccc2C(C)=O)cc1	1.18	–	–	0.45 (≈ 1.07 µM)	–	–
COc1ccc(-c2nn(C)c3ccccc23)c(OC)c1OC	0.515	95.4	1270	–	–	–
Cc1cnc(C(C)(C)NCC(=O)N(C)C)s1	1.86	≤ 4.74	20.9	–	–	–
O=C(c1cc(F)ccc1O)N1CCN(C2CCOCC2)CC1	–	≤ 4.74	201	–	–	–
CN(Cc1ccc(N)nc1)c1nc(C(F)(F)F)cs1	0.598	≤ 4.74	116	–	–	–
Cc1cc(F)ccc1CC(=O)N[C@@H]1CCOC[C@H]1OCCO	19.7	≤ 4.74	≤ 10.7	47.8 (≈ 153 µM)	–	–
CCN(C(=O)c1cccc(-n2cccn2)c1)c1ccc(C#N)c(Cl)c1	–	79	2060	–	–	–
CC[C@@H]1C(=O)N(C)c2cnc(-n3ccnc3-c3ccc(F)cc3)nc2N1c1ccn(C)n1	14.2	43.7	413	–	–	–
COc1cc(/C=C2\CCCN([C@@H](C)c3ccc(F)cc3)C2=O)ccc1-n1cnc(C)c1	1.48	44.4	83.1	12.9 (≈ 30.8 µM)	–	–
CC1CCN([C@H](c2ccc(F)cc2)c2ccc([C@@H](C)C(=O)O)cc2-c2ccc(C(F)(F)F)cc2)CC1	1.99	7.84	17.7	39.5 (≈ 79.1 µM)	–	–
O=C(O)c1c2ccccc2nn1Cc1ccccc1	1.62	≤ 4.74	≤ 10.7	37.2 (≈ 147 µM)	–	–
Cc1ccc(-c2nc(CC(=O)NCCC(C)C)cs2)cc1	0.529	464	6110	8.17 (≈ 27 µM)	–	–
COc1cccc2cc(C(N)=S)/c(=N/Nc3ccccc3)oc12	0.496	–	–	0.45 (≈ 1.38 µM)	–	–
COCC(=O)Nc1nc(C)c(C)s1	0.659	18.9	71.3	25.6 (≈ 128 µM)	–	–
c1ccc(CNc2nn3nnnc3c3ccccc23)cc1	0.624	–	–	0.1 (≈ 0.362 µM)	–	–
Cc1cc(Oc2cnccn2)ccc1N	–	≤ 4.74	31.2	21.9 (≈ 109 µM)	–	–
COc1ccc(C(=O)Cn2c(=O)n(-c3ccccc3F)c3nc(C)nc(C(N)=O)c32)cc1	1.46	≤ 4.74	76	3.69 (≈ 8.47 µM)	–	–
Cc1cc(C)cc(OCCN(C)C(=O)NCCS(=O)(=O)N(C)C)c1	12.1	37.4	1090	–	–	–

Further lines, results first:

MDR1-MDCK efflux ratio	intrinsic clearance, human liver microsomes [mL/min/kg]	intrinsic clearance, rat liver microsomes [mL/min/kg]	aqueous solubility [µg/mL]	fraction unbound, human plasma	fraction unbound, rat plasma	Compound
37.4	13.9	146	56.3 (≈ 162 µM)	–	–	O=C(c1cccc(CNc2ccc3nccnc3n2)c1)N1CCCCC1
–	≤ 4.74	≤ 10.7	50.5 (≈ 195 µM)	–	–	Nc1ccc2c(ccn2CC(=O)N2CCOCC2)c1
–	125	1650	49.8 (≈ 139 µM)	–	–	O=C(C1CCCN(c2ccc(Cl)nn2)C1)N1CCc2ccccc2C1 (stereo not drawn)
–	129	484	10.1 (≈ 37.5 µM)	–	–	COc1ccc2c(c1)CN(c1nc(C)cc(C)n1)CC2
0.72	≤ 4.74	16.2	27.5 (≈ 112 µM)	–	–	O=C(CN1CCc2ccccc21)N1CCNC1=O
0.671	56.5	1000	65.2 (≈ 189 µM)	–	–	Cc1cc(N2CCCCC2)nc(CNC(=O)c2ccccc2Cl)n1
–	17	242	–	–	–	Cc1ccn(CCC(=O)N2CCc3nc4sccc4c(=O)n3CC2)n1
1.56	9.77	93.7	61.2 (≈ 176 µM)	–	–	Cc1cc(C(=O)NC2CCN(C(=O)c3cc(C)sc3C)CC2)no1
–	–	–	1.85 (≈ 5.03 µM)	–	–	Cc1sc2ncnc(N3CCC(C(=O)Nc4ccccn4)CC3)c2c1C
0.76	123	1780	–	–	–	COC1(c2nc(Cc3ccccc3)no2)CCN(Cc2ncccc2Cl)CC1
9.31	228	1980	42 (≈ 96 µM)	–	–	Cc1sc2nc(CN3CCC(C)CC3)nc(N3CCN(c4cnccn4)CC3)c2c1C
4.01	63.4	21.9	32.5 (≈ 125 µM)	–	–	CCN1CCC(Nc2ncnc3c2cnn3C)CC1
2.29	601	2980	–	–	–	CN(CC(=O)Nc1cccc(S(=O)(=O)N2CCCC2)c1)C1CCCCC1
1.22	975	3430	–	–	–	Cc1cc(C#N)cc(N2CCc3c(ncn3CCc3ccccc3)C2)n1
1.5	–	–	0.19 (≈ 0.428 µM)	–	–	Cc1cccc(Nc2ccc(C3CCN(C(=O)c4cc5cc(F)ccc5n4C)CC3)nc2)n1
29	≤ 4.74	≤ 10.7	–	–	–	COc1cc2nc(CN3CCC(CO)CC3)[nH]c(=O)c2cc1OC
1.31	6.14	26	6.44 (≈ 16.8 µM)	–	–	CC1(C)OCCn2c1nc1c(N3CCOCC3)nc(-c3cnc(N)nc3)nc12
16.3	≤ 4.74	≤ 10.7	38 (≈ 155 µM)	–	–	CC(C)C(=O)Nc1ncn(Cc2cccnc2)n1
